Test results taken from patent US20240092758A1, “IMIDAZOLO INDAZOLE COMPOUNDS AS JAK INHIBITORS” (Theravance Biopharma R&D IP, LLC, priority 2021, published 2024).

Key:
[1] = system: IL-13 induced STAT6 phosphorylation in BEAS-2B human lung epithelial cells; assay: Cellular JAKI potency assay (BEAS-2B); type: cell-based; settings: Homo sapiens, BEAS-2B, BEAS-2B cells, read-out: BEAS2B pIC50 (converted)
Procedure, shortened: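 BEAS-2B cells were preincubated with compound (0.1% DMSO) in HBSS/HEPES/BSA for 1 h at 37 °C, then stimulated with IL-13 (80 ng/mL before addition) for 30 min. After lysis, pSTAT6 (Tyr641) was quantified by AlphaLISA SureFire; IC50 from a 4-parameter fit of percent inhibition, reported as pIC50.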

JAK1 = JAK1 (Homo sapiens (Human), UniProt P23458); assay: Biochemical JAK kinase assay (LanthaScreen), JAK1; settings: for Ki: read-out: JAK1 pKi (converted)
Chain of JAK1 (P23458 whole entry): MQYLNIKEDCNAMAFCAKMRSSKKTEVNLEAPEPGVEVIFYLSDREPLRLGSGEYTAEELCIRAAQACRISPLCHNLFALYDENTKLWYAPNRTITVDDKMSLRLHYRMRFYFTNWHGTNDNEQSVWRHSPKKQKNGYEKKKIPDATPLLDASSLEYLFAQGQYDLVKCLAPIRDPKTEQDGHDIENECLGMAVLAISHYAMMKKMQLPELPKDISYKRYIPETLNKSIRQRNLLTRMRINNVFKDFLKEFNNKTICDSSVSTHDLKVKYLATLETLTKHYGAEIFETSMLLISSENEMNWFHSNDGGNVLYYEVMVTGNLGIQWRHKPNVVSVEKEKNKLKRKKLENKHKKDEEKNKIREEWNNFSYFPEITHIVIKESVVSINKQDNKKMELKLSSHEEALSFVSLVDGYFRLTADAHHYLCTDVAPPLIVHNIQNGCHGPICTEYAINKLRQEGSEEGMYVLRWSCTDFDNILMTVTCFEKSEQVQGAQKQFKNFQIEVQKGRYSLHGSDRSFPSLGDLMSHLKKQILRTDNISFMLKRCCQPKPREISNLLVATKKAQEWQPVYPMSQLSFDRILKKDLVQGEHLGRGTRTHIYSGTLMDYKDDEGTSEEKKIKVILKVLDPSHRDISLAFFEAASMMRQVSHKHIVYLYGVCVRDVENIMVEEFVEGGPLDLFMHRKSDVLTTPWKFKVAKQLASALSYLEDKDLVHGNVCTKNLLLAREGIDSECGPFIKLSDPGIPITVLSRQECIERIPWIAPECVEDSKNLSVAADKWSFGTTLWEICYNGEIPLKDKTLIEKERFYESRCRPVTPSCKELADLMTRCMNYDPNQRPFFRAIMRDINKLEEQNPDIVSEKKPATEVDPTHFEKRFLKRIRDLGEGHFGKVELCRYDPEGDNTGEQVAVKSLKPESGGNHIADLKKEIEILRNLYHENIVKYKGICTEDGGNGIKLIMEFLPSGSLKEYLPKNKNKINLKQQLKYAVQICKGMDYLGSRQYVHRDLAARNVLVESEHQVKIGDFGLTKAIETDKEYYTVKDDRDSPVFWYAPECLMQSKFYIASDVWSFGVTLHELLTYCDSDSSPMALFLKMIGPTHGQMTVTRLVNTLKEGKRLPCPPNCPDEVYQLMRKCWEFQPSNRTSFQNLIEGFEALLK
Procedure, shortened: (§1)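 LanthaScreen format: phospho-STAT1 (pTyr701) detected with 2 nM Tb antibody after 10 mM EDTA quench. Kinase step used Km-level ATP and 200 nM STAT1 peptide, 1 h at ambient after 1 h pre-incubation. Inhibition fitted to IC50, reported as pKi.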

[2] = Pharmacokinetics in plasma and lung in mouse after oral aspiration administration; type: in vivo; settings: male CD1 mice; for Lung Tissue AUC(0-24) / AUC(0-t): 0.2 mg/mL, two 25 μL increments; for Lung Tissue:Plasma AUC ratio: lung AUC to plasma AUC; for AUC(0-t): mouse, inhaled or intranasal, 0.01 mg/mouse, plasma, read-out: Plasma AUC(0-24)
Experimental: Plasma and lung concentrations of test compounds were quantified and pharmacokinetic parameters were calculated in the following manner. Male CD1 mice from Charles River Laboratories were used in the pharmacokinetic studies. Test compounds were individually formulated in 20% propylene glycol in pH 4 citrate buffer at a concentration of 0.2 mg/mL. Test compounds were administered in two, 25 μL increments introduced into the trachea of each mouse by oral aspiration using a calibrated pipette once the animal was anesthetized using isoflurane. Blood samples were collected as terminal collections via cardiac puncture at 0.167, 1, 4, 8, and 24 hr post-dosing. Following […] with CO2, a direct cardiac puncture was performed while avoiding puncturing the lung and blood was immediately transferred into K2EDTA tubes and placed on wet ice. Blood samples were centrifuged (Eppendorf centrifuge, 5804R) for 4 minutes at approximately 12,000 rpm at 4° C. to collect plasma. Intact lungs were also excised from these mice using the same timepoints (0.167, 1, 4, 8, and 24 hr). Lungs were washed with sterile water to remove any blood residue and were patted dry, weighed, and homogenized in 0.1% formic acid in water at a dilution of 1:3 (lung:water, weight/volume). Plasma and lung concentrations of test compounds were determined by LC-MS/MS analysis against analytical standards constructed into a standard curve in the test matrix. The pharmacokinetic parameters of test compounds were determined by non-compartmental analysis. For concentrations below the limit of quantification, zero was used for mean calculations. Mean values were not reported if more than 50% of the samples were below the limit of quantification at a timepoint, or if more than 50% of a calculated pharmacokinetic parameter was not reportable. The area under the concentration-time curve extrapolated to infinity (AUC(0-inf)) was calculated as follows: AUC(0-inf)=AUC(0-t)+Clast/k, where AUC(0-t) is the area under the concentration-time curve from the time of dosing to the last measurable concentration calculated by the linear trapezoidal rule, Clast is the last measurable concentration, and k is the first order rate constant associated with the terminal elimination phase, estimated by linear regression of time versus log concentration. The lung-to-plasma AUC ratio was determined as the ratio of the lung AUC(0-inf) in μg*hr/g to the plasma AUC(0-inf) in μg*hr/mL.

JAK2 = JAK2 (Homo sapiens (Human), UniProt O60674); assay: Biochemical JAK kinase assay (LanthaScreen), JAK2; settings: for Ki: read-out: JAK2 pKi (converted)
Chain of JAK2 (O60674 whole entry): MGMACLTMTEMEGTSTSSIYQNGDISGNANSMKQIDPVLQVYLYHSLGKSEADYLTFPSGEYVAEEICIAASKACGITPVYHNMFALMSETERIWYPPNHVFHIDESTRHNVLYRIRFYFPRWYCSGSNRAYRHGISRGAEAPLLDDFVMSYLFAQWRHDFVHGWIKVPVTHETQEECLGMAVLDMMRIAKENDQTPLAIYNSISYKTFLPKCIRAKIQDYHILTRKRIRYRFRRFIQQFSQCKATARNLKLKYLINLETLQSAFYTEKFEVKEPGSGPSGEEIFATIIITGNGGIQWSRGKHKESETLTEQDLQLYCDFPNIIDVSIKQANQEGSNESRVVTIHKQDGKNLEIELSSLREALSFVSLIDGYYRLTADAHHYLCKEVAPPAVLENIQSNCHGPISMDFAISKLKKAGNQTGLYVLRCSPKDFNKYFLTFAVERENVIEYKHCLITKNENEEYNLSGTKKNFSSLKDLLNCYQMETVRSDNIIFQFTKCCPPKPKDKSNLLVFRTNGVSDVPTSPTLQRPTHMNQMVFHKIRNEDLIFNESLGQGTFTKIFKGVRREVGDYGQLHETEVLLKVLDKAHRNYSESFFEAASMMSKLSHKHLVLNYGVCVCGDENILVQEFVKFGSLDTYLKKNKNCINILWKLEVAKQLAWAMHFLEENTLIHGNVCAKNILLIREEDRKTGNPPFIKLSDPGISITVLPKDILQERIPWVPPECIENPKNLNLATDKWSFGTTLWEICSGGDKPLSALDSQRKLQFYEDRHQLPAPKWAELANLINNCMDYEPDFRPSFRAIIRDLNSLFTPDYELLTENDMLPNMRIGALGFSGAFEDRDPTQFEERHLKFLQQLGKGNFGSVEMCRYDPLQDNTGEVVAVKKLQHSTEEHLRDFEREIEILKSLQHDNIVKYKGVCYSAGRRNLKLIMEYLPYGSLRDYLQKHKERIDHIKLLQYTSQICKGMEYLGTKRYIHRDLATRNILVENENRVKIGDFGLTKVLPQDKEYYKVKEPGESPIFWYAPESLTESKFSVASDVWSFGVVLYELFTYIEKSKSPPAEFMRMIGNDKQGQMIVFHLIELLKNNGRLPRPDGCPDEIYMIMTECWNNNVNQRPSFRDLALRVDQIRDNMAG
Procedure, shortened: as §1

TYK2 = TYK2 (Homo sapiens (Human), UniProt P29597); assay: Biochemical JAK kinase assay (LanthaScreen), Tyk2; settings: read-out: Tyk2 pKi (converted)
Chain of TYK2 (P29597 whole entry): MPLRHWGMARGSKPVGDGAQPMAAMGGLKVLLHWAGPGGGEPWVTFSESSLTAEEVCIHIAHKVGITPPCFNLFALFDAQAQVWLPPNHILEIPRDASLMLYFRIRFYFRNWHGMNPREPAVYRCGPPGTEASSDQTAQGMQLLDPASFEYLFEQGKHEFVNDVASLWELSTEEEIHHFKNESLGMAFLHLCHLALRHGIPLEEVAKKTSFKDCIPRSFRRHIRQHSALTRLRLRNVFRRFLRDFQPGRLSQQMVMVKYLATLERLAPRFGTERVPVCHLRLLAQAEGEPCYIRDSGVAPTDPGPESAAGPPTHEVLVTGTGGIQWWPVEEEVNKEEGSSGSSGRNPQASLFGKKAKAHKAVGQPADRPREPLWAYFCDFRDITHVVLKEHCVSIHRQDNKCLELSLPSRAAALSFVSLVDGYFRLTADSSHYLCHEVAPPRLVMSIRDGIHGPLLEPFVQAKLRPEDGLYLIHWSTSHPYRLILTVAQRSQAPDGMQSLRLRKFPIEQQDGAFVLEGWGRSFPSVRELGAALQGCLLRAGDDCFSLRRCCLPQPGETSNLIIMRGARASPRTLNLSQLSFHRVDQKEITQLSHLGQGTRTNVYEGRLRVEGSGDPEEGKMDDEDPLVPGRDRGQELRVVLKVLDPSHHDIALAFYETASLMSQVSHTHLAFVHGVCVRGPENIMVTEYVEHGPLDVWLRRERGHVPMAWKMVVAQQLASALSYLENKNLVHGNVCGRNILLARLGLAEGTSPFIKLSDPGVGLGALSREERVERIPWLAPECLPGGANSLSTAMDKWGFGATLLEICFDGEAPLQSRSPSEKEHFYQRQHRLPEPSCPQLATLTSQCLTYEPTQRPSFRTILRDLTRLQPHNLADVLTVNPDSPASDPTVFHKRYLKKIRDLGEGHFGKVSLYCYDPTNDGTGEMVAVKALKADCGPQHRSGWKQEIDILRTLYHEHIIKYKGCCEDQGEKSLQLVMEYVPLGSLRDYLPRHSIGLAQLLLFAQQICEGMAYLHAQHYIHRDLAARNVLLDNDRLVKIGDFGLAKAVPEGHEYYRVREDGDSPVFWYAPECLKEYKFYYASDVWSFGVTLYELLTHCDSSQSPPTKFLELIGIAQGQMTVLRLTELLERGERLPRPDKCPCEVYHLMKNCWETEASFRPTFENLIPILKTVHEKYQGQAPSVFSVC
Experimental: A panel of four LanthaScreen JAK biochemical assays (JAK1, 2, 3 and Tyk2) were carried in a common kinase reaction buffer (50 mM HEPES, pH 7.5, 0.01% Brij-35, 10 mM MgCl2, and 1 mM EGTA). Recombinant GST-tagged JAK enzymes and a GFP-tagged STAT1 peptide substrate were obtained from Life Technologies.
Serially diluted compounds were pre-incubated with each of the four JAK enzymes and the substrate in white 384-well microplates (Corning) at ambient temperature for 1 h. ATP was subsequently added to initiate the kinase reactions in 10 μL total volume, with 1% DMSO. The final enzyme concentrations for JAK1, 2, 3 and Tyk2 are 4.2 nM, 0.1 nM, 1 nM, and 0.25 nM respectively; the corresponding Km ATP concentrations used are 25 μM, 3 μM, 1.6 μM, and 10 μM; while the substrate concentration is 200 nM for all four assays. Kinase reactions were allowed to proceed for 1 hour at ambient temperature before a 10 μL preparation of EDTA (10 mM final concentration) and Tb-anti-pSTAT1 (pTyr701) antibody (Life Technologies, 2 nM final concentration) in TR-FRET dilution buffer (Life Technologies) was added. The plates were allowed to incubate at ambient temperature for 1 h before being read on the EnVision reader (Perkin Elmer). Emission ratio signals (520 nm/495 nm) were recorded and utilized to calculate the percent inhibition values based on DMSO and background controls.
For dose-response analysis, percent inhibition data were plotted vs. compound concentrations, and IC50 values were determined from a 4-parameter robust fit model with the Prism software (GraphPad Software). Results were expressed as pIC50 (negative logarithm of IC50) and subsequently converted to pKi (negative logarithm of dissociation constant, Ki) using the Cheng-Prusoff equation.
Test compounds having a lower Ki value or higher pKi value in the four JAK assays show greater inhibition of JAK activity.

SMILES	IC50 [1] [nM]	Ki (JAK1) [nM]	Lung Tissue AUC(0-24) [2]	Lung Tissue:Plasma AUC ratio [2]	AUC(0-t) [2] [ng·h/mL]	Ki (JAK2) [nM]	JAK1 pKi (JAK1)	JAK2 pKi (JAK2)	Ki (TYK2) [nM]
CCc1cc(O)ccc1-c1ccc2c(-c3nc(C4=CCN(C(C)CO)CC4)c[nH]3)n[nH]c2c1F (stereo not drawn) [Compound 13, 3-ethyl-4-(7-fluoro-3-(4-(1-(1-hydroxypropan-2-yl)-1,2,3,6-tetrahydropyridin-4-yl)-1H-imidazol-2-yl)-1H-indazol-6-yl)phenol]	3.16 to 10	0.1 to 1	B (B denotes a value between 50 and 100)	C (C denotes a ratio between 100 and 200)	500 to 1000				
CCc1cc(O)ccc1-c1ccc2c(-c3nc(C4=CCN(C[C@H](C)CO)CC4)c[nH]3)n[nH]c2c1F [Example 38]	10 to 31.6		C (C denotes a value between 9 and 50)	D (D denotes a ratio between 50 and 100)	< 500	0.1 to 1	A (A represents a pKi value ≥10 (Ki≤0.1 nM))		
CCc1cc(O)ccc1-c1ccc2c(-c3nc(C4=CCN(CCC(C)(C)O)C4)c[nH]3)n[nH]c2c1 [Example 51]	3.16 to 10		C (C denotes a value between 9 and 50)	C (C denotes a ratio between 100 and 200)	< 500		A (A represents a pKi value ≥10 (Ki≤0.1 nM))	A (A represents a pKi value ≥10 (Ki≤0.1 nM))	
CCc1cc(O)ccc1-c1ccc2c(-c3nc(C4=CCCN(C5CCOCC5)C4)c[nH]3)n[nH]c2c1F [Example 69]	10 to 31.6	0.1 to 1				0.1 to 1			1 to 10
CCc1cc(O)ccc1-c1ccc2c(-c3nc(C4=CCN(C5CCNC5=O)C4)c[nH]3)n[nH]c2c1 (stereo not drawn) [Example 94]	10 to 31.6	0.1 to 1	C (C denotes a value between 9 and 50)	E (E denotes a ratio between 30 and 50)	< 500			A (A represents a pKi value ≥10 (Ki≤0.1 nM))	
CCc1cc(O)ccc1-c1ccc2c(-c3nc(C4=CCN(CCNS(C)(=O)=O)CC4)c[nH]3)n[nH]c2c1F [Example 106]	10 to 31.6	0.1 to 1	C (C denotes a value between 9 and 50)	C (C denotes a ratio between 100 and 200)	< 500			A (A represents a pKi value ≥10 (Ki≤0.1 nM))	
CCc1cc(O)ccc1-c1ccc2c(-c3nc(C4=CCN(C5CCN(C)CC5)CC4)c[nH]3)n[nH]c2c1 [Example 182]	10 to 31.6					0.1 to 1	A (A represents a pKi value ≥10 (Ki≤0.1 nM))		1 to 10
CCc1cc(O)ccc1-c1ccc2c(-c3nc(C4=CCN(CCN)CC4)c[nH]3)n[nH]c2c1F [Example 187]	31.6 to 100	0.1 to 1				0.1 to 1			1 to 10
CCc1cc(O)ccc1-c1ccc2c(-c3nc(C4=CCN(CCNC)CC4)c[nH]3)n[nH]c2c1F [Example 188]	31.6 to 100	0.1 to 1							1 to 10
CCc1cc(O)ccc1-c1ccc2c(-c3nc(C4=CCCN(C[C@@H]5COCCN5)C4)c[nH]3)n[nH]c2c1 [Example 193]	31.6 to 100	0.1 to 1				0.1 to 1			1 to 10
CCc1cc(O)ccc1-c1ccc2c(-c3nc(C4=CCCN(C[C@H]5COCCN5)C4)c[nH]3)n[nH]c2c1F [Example 197]	31.6 to 100	0.1 to 1							1 to 10
CCc1cc(O)ccc1-c1ccc2c(-c3nc(C4=CCCN(CCN5CCOCC5)C4)c[nH]3)n[nH]c2c1F [Example 198]	10 to 31.6	0.1 to 1				0.1 to 1			1 to 10
CCc1cc(O)ccc1-c1ccc2c(-c3nc(C4=CCN(CCN)C4)c[nH]3)n[nH]c2c1F [Example 203]	31.6 to 100	0.1 to 1							1 to 10
CCc1cc(O)ccc1-c1ccc2c(-c3nc(C4=CCN(CCNC)C4)c[nH]3)n[nH]c2c1F [Example 204]	31.6 to 100	0.1 to 1							1 to 10
CCc1cc(O)ccc1-c1ccc2c(-c3nc(C4=CCN(C[C@@H]5COCCN5C)CC4)c[nH]3)n[nH]c2c1F [Example 210]	10 to 31.6	0.1 to 1						A (A represents a pKi value ≥10 (Ki≤0.1 nM))	1 to 10
CCc1cc(O)ccc1-c1ccc2c(-c3nc(C4=CCN(C5CCCNC5)CC4)c[nH]3)n[nH]c2c1F (stereo not drawn) [Example 211]	31.6 to 100	0.1 to 1							1 to 10
CCc1cc(O)ccc1-c1ccc2c(-c3nc(C4=CCCN(C5CCCNC5)C4)c[nH]3)n[nH]c2c1F (stereo not drawn) [Example 216]	100 to 316	1 to 10				0.1 to 1			1 to 10
CCc1cc(O)ccc1-c1ccc2c(-c3nc(C4=CCN(C[C@@H]5COCCN5C)C4)c[nH]3)n[nH]c2c1F [Example 221]	10 to 31.6	0.1 to 1							0.1 to 1
CCc1cc(O)ccc1-c1ccc2c(-c3nc(C4=CCN(C5CCCNC5)C4)c[nH]3)n[nH]c2c1F (stereo not drawn) [Example 222]	10 to 31.6	0.1 to 1							1 to 10
CCc1cc(O)ccc1-c1ccc2c(-c3nc(C4=CC(C)(C)NC(C)(C)C4)c[nH]3)n[nH]c2c1 [Example 226]	10 to 31.6	0.1 to 1							1 to 10
CCc1cc(O)ccc1-c1ccc2c(-c3nc(C4=C(C)CCNC4)c[nH]3)n[nH]c2c1F [Example 236]	10 to 31.6	0.1 to 1	B (B denotes a value between 50 and 100)	C (C denotes a ratio between 100 and 200)	500 to 1000	0.1 to 1			
CCc1cc(O)ccc1-c1ccc2c(-c3nc(C4=C[C@H](COC)NC4)c[nH]3)n[nH]c2c1 [Example 241]	3.16 to 10	0.1 to 1	C (C denotes a value between 9 and 50)	D (D denotes a ratio between 50 and 100)	500 to 1000	0.1 to 1			
CCc1cc(O)ccc1-c1ccc2c(-c3nc(C4=CCNCC4)c(C)[nH]3)n[nH]c2c1 [Example 291]	3.16 to 10						A (A represents a pKi value ≥10 (Ki≤0.1 nM))		0.1 to 1
CCc1cc(O)ccc1-c1ccc2c(-c3nc(C4=CCN(C[C@@H]5COCCN5C(=O)OC(C)(C)C)CC4)c[nH]3)n[nH]c2c1 [Example 383]	31.6 to 100	0.1 to 1							10 to 100
